≈ marks a conversion by molar mass, not a printed value.
Key:
[1] = test system: plaque forming cells in the spleen; assay: Effect on humoral antibody formation to Sheep Red Blood Cell (SRBC) in mice (JERNE's hemolytic plaque technique); type: in vivo, Mice (dd/y female); conditions: for Antibody Forming Cells Number / Antibody Forming Cells Treated Group / Non-treated Group: intraperitoneal, four days
Protocol: The compound of Example 28 was also tested for its humoral antibody formation to find its efficacy as an immunizing cancer inhibitor. […] For the humoral antibody formation of Bestatin per se see J. Antibiotics, 29(8), 857-859 (August, 1976).
The effect of (2RS,3RS)-3-amino-2-hydroxy-4-hydroxyphenylbutanoyl-(S)-leucine on humoral antibody formation to Sheep Red Blood Cell (SRBC) in mice was studied as follows.
Mice (dd/y female) were immunized by intravenous injection of 10^8 SRBC. Intraperitoneal injection of (2RS,3RS)-3-amino-2-hydroxy-4-hydroxyphenylbutanoyl-(S)-leucine was made soon afterwards.
Four days thereafter the number of plaque forming cells in the spleen were enumerated by JERNE's hemolytic plaque technique [Jerne, N. K.; A. A. Nordin & C. Henry: "The Agar Plaque Technique for Recognizing Antibody-producing Cells" in cell-bound antibodies (Wistar Institute Press, Philadelphia, 1963), pp. 109-122].

[2] = target: T1, aminopeptidase B (Rattus norvegicus, UniProt O09175); assay: Inhibitory activity against aminopeptidase B; type: biochemical
T1 construct: aminopeptidase B solution which is prepared by Sephadex 100 chromatography as described by Hopusu et al; from tissue
T1 sequence (O09175 1-650): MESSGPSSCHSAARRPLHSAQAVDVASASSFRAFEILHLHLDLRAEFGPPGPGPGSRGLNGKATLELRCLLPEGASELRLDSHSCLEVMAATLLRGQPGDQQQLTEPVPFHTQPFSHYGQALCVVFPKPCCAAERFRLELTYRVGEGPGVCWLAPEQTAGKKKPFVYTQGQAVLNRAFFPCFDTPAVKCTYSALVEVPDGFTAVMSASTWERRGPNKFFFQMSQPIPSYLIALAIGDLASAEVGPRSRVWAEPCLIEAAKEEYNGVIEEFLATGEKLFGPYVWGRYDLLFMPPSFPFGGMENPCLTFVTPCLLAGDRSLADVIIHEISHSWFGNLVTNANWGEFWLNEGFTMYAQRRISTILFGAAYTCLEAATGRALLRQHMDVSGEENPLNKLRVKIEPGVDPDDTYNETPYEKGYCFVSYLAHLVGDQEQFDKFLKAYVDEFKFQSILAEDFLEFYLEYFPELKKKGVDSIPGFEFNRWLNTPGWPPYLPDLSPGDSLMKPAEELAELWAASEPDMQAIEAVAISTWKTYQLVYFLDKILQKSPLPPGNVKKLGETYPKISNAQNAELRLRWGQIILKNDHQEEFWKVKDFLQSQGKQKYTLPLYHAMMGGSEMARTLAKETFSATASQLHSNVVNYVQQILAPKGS
Protocol: (A) Inhibitory activity against aminopeptidase B Testing method: The method described by […] in Archives of Biochemistry and Biophysics 114, 557, (1966) was modfied. To the mixture of 0.3 ml. of 1 mM arginine β-naphthylamide and 1.0 Ml. of 0.1 M Tris hydrochloride buffer (pH 7.0), 0.7 Ml. of distilled water with or without a test material is added and warmed at 37° C. for 3 minutes. The reaction is started by addition of 0.2 ml. of aminopeptidase B solution which is prepared by Sephadex 100 chromatography as described by Hopusu et al. […] Fifteen minutes at room temperature thereafter, absorbance (a) at 530 nm is measured by spectrophotometer. […] The inhibition percent is calculated as follows: (b-a)/b×100.

[3] = Contraceptive property: antifertility of Bestatin; type: in vivo, ICR JCL female mice
Protocol: (C) Contraceptive property:
Antifertility of Bestatin:
Immediately after subcutaneously administering Bestatin (10 mg./kg.) to ICR JCL female mice at the age of puberty, these mice were placed with male mice of similar line. Female mice which had copulated were killed two days after formulation of vaginal plug and the ova were collected from their uterine tubes so as to examine whether they had been fertilized or not. The fertilized ova were at 8-16 cell period.

[4] = Organ distribution of Bleomycin B2 in the presence of Bestatin; type: in vivo, ICR male mice; conditions: 1 hour, average of 3
Protocol: (B) Organ distribution of Bleomycin in the presence of Bestatin:
100 mg./kg. of Bleomycin B2 was subcutaneously administered to each of three ICR male mice (4 weeks of age) and 100 mg./kg. of Bleomycin B2 and 100 mg./kg. of Bestatin were subcutaneously administered simultaneously to each of three similar mice. These 6 mice were killed one hour after administration and the quantity of Bleomycin B2 remaining in the serum and organs was determined by a thin layer disc method employing Bacillus subtilis PCI219 as the test microorganism. The results are as listed in Table 2, wherein the numerals show average values in mcg./ml.

[5] = BLM 100 mg/kg + BST (Bestatin) 100 mg/kg s.c. simultaneously

CC(C)C[C@H](NC(=O)[C@@H](O)[C@H](N)Cc1ccccc1)C(=O)O [No. 1, [(2S,3R)-3-amino-2-hydroxy-4-phenylbutanoyl]-L-leucine]
number of antibody forming cells compared with non-treated group ([1]; 10 mcg., in words): nearly equal to that of non-treated group
Antibody Forming Cells Number ([1]; dose 1 mg.): 190,000±7,100
Antibody Forming Cells Treated Group / Non-treated Group ([1]; dose 1 mg.): 1.52
Antibody Forming Cells Number ([1]; dose 10 mcg.): 136,250±6,500
Antibody Forming Cells Treated Group / Non-treated Group ([1]; dose 10 mcg.): 1.09
ID50 ([2]; Biological Testing table after Example 29): 0.10 µg/mL (≈ 0.324 µM)
ID50 ([2]; pH 7.0, 37° C., 30 minutes, Table 1): 0.10 µg/mL (≈ 0.324 µM)
antifertility ([3]; 10 mg./kg. s.c.): has an antifertility property
Fertilized ovum (number) ([3]; 10 mg./kg. s.c., Female No. 1): 4
Fertilized ovum (percent) ([3]; 10 mg./kg. s.c., Female No. 1): 40%
Non-fertilized ovum (number) ([3]; 10 mg./kg. s.c., Female No. 1): 6
Non-fertilized ovum (percent) ([3]; 10 mg./kg. s.c., Female No. 1): 60%
Number of collected ovum ([3]; 10 mg./kg. s.c., Female No. 1): 10
Number of corpus luteum ([3]; 10 mg./kg. s.c., Female No. 1): 10
Fertilized ovum (number) ([3]; 10 mg./kg. s.c., Female No. 2): 6
Fertilized ovum (percent) ([3]; 10 mg./kg. s.c., Female No. 2): 31.6%
Non-fertilized ovum (number) ([3]; 10 mg./kg. s.c., Female No. 2): 13
Non-fertilized ovum (percent) ([3]; 10 mg./kg. s.c., Female No. 2): 68.4%
Number of collected ovum ([3]; 10 mg./kg. s.c., Female No. 2): 19
Number of corpus luteum ([3]; 10 mg./kg. s.c., Female No. 2): 19
Fertilized ovum (number) ([3]; 10 mg./kg. s.c., Total N=2): 10
Fertilized ovum (percent) ([3]; 10 mg./kg. s.c., Total N=2): 34.5%
Non-fertilized ovum (number) ([3]; 10 mg./kg. s.c., Total N=2): 19
Non-fertilized ovum (percent) ([3]; 10 mg./kg. s.c., Total N=2): 65.5%
Number of collected ovum ([3]; 10 mg./kg. s.c., Total N=2): 29
Number of corpus luteum ([3]; 10 mg./kg. s.c., Total N=2): 29
fertility of the ova collected ([3]; copulated 4-16 hours after administration, control 70%): 34.5%

Bleomycin B2 [BLM]
Bleomycin B2 remaining in Brain [4, 5]: 2.4 µg/mL
Bleomycin B2 remaining in Kidney [4, 5]: 84.0 µg/mL
Bleomycin B2 remaining in Liver [4, 5]: 0 µg/mL
Bleomycin B2 remaining in Lung [4, 5]: 21.2 µg/mL
Bleomycin B2 remaining in Serum [4, 5]: 140 µg/mL
Bleomycin B2 remaining in Skin [4, 5]: 42.0 µg/mL
Bleomycin B2 remaining in Spleen [4, 5]: 5.8 µg/mL
Bleomycin B2 remaining in Stomach [4, 5]: 2.5 µg/mL
Bleomycin B2 remaining in Brain ([4]; BLM 100 mg/kg s.c. alone): 0 µg/mL
Bleomycin B2 remaining in Kidney ([4]; BLM 100 mg/kg s.c. alone): 68.0 µg/mL
Bleomycin B2 remaining in Liver ([4]; BLM 100 mg/kg s.c. alone): 0 µg/mL
Bleomycin B2 remaining in Lung ([4]; BLM 100 mg/kg s.c. alone): 11.2 µg/mL
Bleomycin B2 remaining in Serum ([4]; BLM 100 mg/kg s.c. alone): 110 µg/mL
Bleomycin B2 remaining in Skin ([4]; BLM 100 mg/kg s.c. alone): 4.5 µg/mL
Bleomycin B2 remaining in Spleen ([4]; BLM 100 mg/kg s.c. alone): 4.0 µg/mL
Bleomycin B2 remaining in Stomach ([4]; BLM 100 mg/kg s.c. alone): 1.6 µg/mL

Source: patent US4189604A, “Bestatin” (Zaidan Hojin Biseibutsu Kagaku Kenkyu Kai, priority 1975, dated 1980)
